The numbers were not newly measured in patent publication US20240368000A1, “CARBON REMOVAL FROM SEAWATER AND OTHER LIQUIDS USING PHOTOACTIVE COMPOUNDS” (University of Washington, priority 2021, published 2024), which cites them from elsewhere.

Molecules are shown by their SMILES.

The conditions of this series: ground (dark) state of the photoacid; value from Wimberger et al., Chem. Commun. 2022, 58(37), 5610-5613.

Take `COc1ccc2c(c1)C(C)(C)C(/C=C\c1ccccc1O)=[N+]2CCCC[S@SP3](=O)(=O)[O-]` [merocyanine photoacid]: the pKa-Dark is listed as 7.33.
